Measurements as given in patent US12661355B2, “Compounds and methods for inducing UCP1 expression” (The Regents of the University of California, priority 2020, dated 2026).

What was measured:
[1] = test system: Ucp1; test: Gene expression by qPCR in immortalized brown adipocytes; format: cell-based, mouse; settings: for effect of antagonist on induction of Ucp1 mRNA by Z160: 20 μM antagonist 1 h prior to and during overnight 10 μM Z160
Procedure: Primary brown adipocytes were isolated according to known methods. An established mouse brown adipocyte cell line was obtained from Dr. Bruce Spiegelman (Dana-Farber Cancer Institute, Boston, USA). To differentiate primary and immortalized brown adipocytes, cells were grown until confluency in DMEM containing 10% FBS, 25 mM glucose 1 mM pyruvate, 2 mM glutamine, 20 nM insulin, 1 nM T3, and antibiotics. Once confluent (day 0), differentiation was induced by supplementing the medium with 0.5 mM IBMX, 0.5 μM dexamethasone, and 0.125 mM indomethacin, for 2 days. Differentiation was continued in the original medium (without IBMX, dexamethasone and indomethacin) for 7-10 days.
TScreening was conducted at the UCLA Molecular Screening Shared Resource using automated instruments Immortalized brown adipocytes were differentiated in T225 flasks and plated in Matrix 384-well plates (26,000 cells per well) with white flat bottom (ThermoScientific) using trypsin and collagenase type II (Sigma C6885). The small molecule libraries screened were a BioMol library (204 compounds), an FDA-approved drug library (1120 compounds), a Microsource spectrum collection (2000 compounds), and a druggable compound set (8000 compounds). Molecules were delivered at 10 μM final concentration in DMSO. The screen was performed in duplicate on different days. After 18 h, luciferase activity was measured with Bright-Glo luciferase assay system and an LJL instrument. Data were normalized to the basal response (100% activity) in the presence of DMSO. Following the primary screen, 92 molecules were selected for validation and used to treat brown adipocyte cells plated in a 96-well plate overnight. RNA was extracted with an SV 96 Total RNA Isolation System (Promega). Compounds used for follow-up studies were identified using search tools available from Molport (molport.com), and ordered from the same company.
(§1) RNA levels were measured by qPCR according to known methods. Briefly, RNA was extracted with TRIzol (Invitrogen) and reverse transcribed with iScript (Bio-Rad). Real-time PCR analysis was performed with a CFX Connect (Bio-Rad).
Mouse RNA levels were measured by qPCR according to known methods. Data were normalized to B2m and Tbp reference genes. Human RNA was extracted using an RNA Mini Plus kit (Zymo) and gene expression determined by Taqman assay. The 1-step qPCR was run on a QuantStudio 12K Flex Real Time PCR System (ThermoFisher) using the following protocol: 50° C. for 5 minutes, 95° C. for 20 seconds, 40 cycles of 95° C. for 15 seconds and 60° C. for 60 seconds. Data were normalized to PPIA and PSMB2 reference genes. For global gene expression analysis, RNA isolated from brown adipocytes treated with compounds as indicated (four biological replicates) was hybridized to Illumina mouse Ref 8 V2.0 bead chips at the University of California, Los Angeles Neuroscience Genomics Core as previously described. Data were processed with GenomeStudio V2011.1 using the quantile normalization, background subtraction, and a present call of P<0.05.

[2] = test system: PKA; test: PKA activity ELISA, cell or tissue lysates treated 30 min; format: biochemical, mouse; settings: cell lysates, 500 μM H-89 10 min, then 50 μM Z160 30 min
Procedure: PKA kinase activity was measured with an ELISA that utilized a synthetic peptide as substrate for PKA and a polyclonal antibody that recognizes the phosphorylated form of the substrate (ab139435, Abcam). PKA activity was measured in lysates from cultured brown adipocytes, mouse BAT, or liver. Cells and tissues were lysed in 20 mM MOPS, 5 mM EGTA, 2 mM EDTA, and 0.1% Triton X-100 supplemented with protease and phosphatase inhibitor as described above. Protein concentration was determined by Bradford assay and 10 μg of cells, 0.25 μg of BAT extract, or 0.5 μg of liver extract were assessed for PKA activation according to the manufacturer's instruction, with minor changes. Briefly, vehicle or Z160 was incubated with brown adipocyte cells overnight or with protein lysates for 30 min, followed by one wash before the primary antibody, 60 min incubation with the primary antibody, 30 min incubation with the secondary antibody, and by 10 min washing. Absorbance was measured after the substrate was added for 20-60 min, depending the intensity of the signal.

[3] = test system: NRVM; test: Hypertrophic gene expression in neonatal rat ventricular myocytes; format: cell-based; settings: agonist alone, 48 h
Procedure: (§2) Rat H9c2 cells were grown in DMEM supplemented with 10% FBS, 25 mM glucose, 1 mM pyruvate, and 2 mM glutamine Neonatal rat ventricular myocytes (NRVM) were isolated and cultured as previously described. Briefly, 2-4 day old rats were sacrificed and myocytes and fibroblasts were isolated and separated using a Percoll density gradient. Following isolation, NRVMs were plated on gelatin-coated plates in DMEM containing 10% FBS, 25 mM glucose, 1 mM pyruvate, and 2 mM glutamine The next day, FBS was replaced by 1× insulin-transferrin-selenium supplement and the cells were treated with vehicle or 10 μM Z160 for 2 days, with or without 60 μM isoproterenol or 50 μM phenylephrine.
as §1

[4] = test system: NRVM; test: Respirometry (reserve capacity) in neonatal rat ventricular myocytes; format: cell-based; settings: 48 h 100 μM isoproterenol followed by 24 h rest
Procedure: as §2
NRVM were seeded in a Seahorse Bioscience XF96 plate and cultured for 48 h in 10% FBS. Next, cells were treated with 100 μM ISO for 48 h, followed by 24 h of 10 μM Z160. Oxygen consumption rate (OCR) was recorded in a Seahorse Bioscience XF96 analyzer before and after the sequential injection of 0.75 μM oligomycin, 0.75 μm FCCP and 0.75 μM rotenone/myxothiazol. Reserve capacity was calculated as the difference between basal respiration and FCCP response.

[5] = molecular target: T1, AKAP1 (Mus musculus, UniProt O08715); test: Drug Affinity Responsive Target Stability (DARTS) in BAT or brown adipocyte extracts, AKAP1; format: binding; settings: mouse brown adipocyte extracts, 1 h, 20 μM (CL316,243 20 nM)
T1 construct: from tissue; host or cells: mouse brown adipose tissue (BAT) lysate; also mouse brown adipocyte extracts
T1 sequence (O08715 30-857): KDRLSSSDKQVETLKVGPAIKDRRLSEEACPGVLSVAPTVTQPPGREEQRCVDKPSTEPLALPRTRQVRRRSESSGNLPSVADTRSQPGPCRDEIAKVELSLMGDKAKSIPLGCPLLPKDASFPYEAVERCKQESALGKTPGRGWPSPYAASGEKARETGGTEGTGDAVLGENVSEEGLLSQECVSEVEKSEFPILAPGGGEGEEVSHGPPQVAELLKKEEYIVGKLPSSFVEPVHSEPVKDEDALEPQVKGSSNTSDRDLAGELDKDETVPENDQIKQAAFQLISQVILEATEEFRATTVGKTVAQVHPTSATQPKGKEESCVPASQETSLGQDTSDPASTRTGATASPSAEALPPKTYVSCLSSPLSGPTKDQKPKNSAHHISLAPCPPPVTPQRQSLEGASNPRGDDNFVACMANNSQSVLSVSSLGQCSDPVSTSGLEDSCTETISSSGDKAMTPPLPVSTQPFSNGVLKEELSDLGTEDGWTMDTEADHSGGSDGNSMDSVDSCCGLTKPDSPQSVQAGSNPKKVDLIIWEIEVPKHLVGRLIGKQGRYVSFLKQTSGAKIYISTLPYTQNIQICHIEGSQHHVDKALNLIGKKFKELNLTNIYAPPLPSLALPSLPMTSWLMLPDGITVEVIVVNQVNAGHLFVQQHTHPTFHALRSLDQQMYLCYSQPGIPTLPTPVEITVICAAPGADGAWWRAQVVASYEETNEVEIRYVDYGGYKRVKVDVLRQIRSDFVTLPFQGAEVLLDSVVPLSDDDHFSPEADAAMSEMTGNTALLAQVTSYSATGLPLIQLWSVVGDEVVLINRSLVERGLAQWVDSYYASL
Procedure: […] assays were performed according to known methods. Briefly, BAT or cells within a 10 cm dish were lysed with 600 μl M-PER buffer containing protease and phosphatase inhibitors. Debris was pelleted by centrifugation at 18,000 g for 10 min at 4° C., and the lysates were harvested and supplemented with TNC buffer (50 mM Tris-HCl, 50 mM NaCl, 10 mM CaCl2). The lysates were split into two tubes and treated with either vehicle or 20 μM Z160 for 1 h at room temperature. For experiment with BAT, 100 μg of lysate was incubated with different Z160 concentrations. Different concentrations of pronase (from 1:100 to 1:10,000 dilution from a 1.25 mg/ml pronase stock) were incubated with the samples for 30 min at room temperature and the reaction was stopped with SDS loading buffer followed immediately by heating at 70° C. for 10 min. Protein lysates were separated by SDS-PAGE and transferred to a nitrocellulose membrane. After blocking in 5% milk, 0.1% Tween-20 in Tris-buffered saline (TBS), primary antibody was incubated overnight at 4° C. in 5% bovine serum albumin and 0.1% Tween-20 in TBS. Primary antibodies against AKAP1 (5203, Cell Signaling), AKAP13 (39715, One World Lab), GAPDH (GTX100118, Genetex), OPA1 (39557, One World Lab), PKA C-α (4782, Cell Signaling), PKA RII-β (ab75993, Abcam), were used at 1:2000. A goat anti-rabbit secondary antibody (sc-2030, Santa Cruz Biotechnology, Inc) was used at a 1:10,000 dilution for 1 h at room temperature in 5% milk and 0.1% Tween-20 in TBS.
The PKA tetramer consists of two catalytic and two regulatory subunits. In the mouse, these are catalytic subunits C-α and C-β, and regulatory subunits RI and RII, each with α and β isoforms (RI-α, RI-β, RII-α, RII-β). PKA is also bound to a family of anchoring proteins, A-kinase anchoring proteins (AKAPs), which allow the compartmentalization of cAMP signaling. To investigate whether Z160 binds PKA complex proteins, two techniques were applied both of which rely on ligand-induced alterations in protein stability: Cellular Thermal Shift Assay (CETSA) and Drug Affinity Responsive Target Stability (DARTS). CETSA is based on the principle that ligand binding will change the temperature at which a protein starts to unfold and aggregate, while DARTS relies on the protection of a protein from proteolysis upon specific binding to a small molecule.
To provide further evidence for an interaction between Z160 and AKAP1, DARTS assays were employed. Lysates from brown fat were treated with different Z160 concentrations for 1 h followed by pronase digestion and immunoblotting. […] The effect of Z160 on AKAP1 was confirmed using mouse brown adipocyte extracts (FIG. 15A).

For O=S(=O)(NCCNC/C=C/c1ccc(Br)cc1)c1cccc2cnccc12 [H-89, reference compound], the “effect of antagonist on Z160 enhancement of Cidea and Elovl3 expression” value ([1]; 20 μM H-89 1 h prior to and during overnight 10 μM Z160) was “blunted”, the “effect of antagonist on induction of Ucp1 mRNA by Z160” value (from here on “effect of antagonist … by Z160”) [1] was “blocked the effect of Z160” and the “PKA activity and Z160 response after pre-incubation with PKA antagonist” value [2] was “reduced the PKA activity and negated the Z160 response”.
c1ccc(CC2=NCCN2)cc1 [tolazoline, reference compound] was tested, and the “effect of antagonist … by Z160” value [1] was “did not prevent”.
For CNC[C@H](O)c1cccc(O)c1 [phenylephrine], the “expression of Nppa and Nppb” value [3] was “induced the expression”, the “expression of Pln” value [3] was “reduced expression” and the “expression of Nppa and Nppb” value ([3]; listed as PE) was “increase”. The “expression of Pln” value ([3]; listed as PE) was “decreasing”.
CC(C)NCC(O)c1ccc(O)c(O)c1 (stereo not drawn) [isoproterenol] was tested, and the “reserve capacity of mitochondrial respiration” value [4] was “decreased the reserve capacity”, the “expression of Nppa and Nppb” value [3] was “induced the expression” and the “expression of Pln” value [3] was “reduced expression”. The “expression of Nppa and Nppb” value ([3]; listed as ISO) was “increase” and the “expression of Pln” value ([3]; listed as ISO) was “decreasing”.
Oc1ccc(-c2nc(-c3ccncc3)c(-c3ccc(F)cc3)[nH]2)cc1 [SB202190, reference compound] was tested, and the “effect of antagonist … by Z160” value [1] was “blocked the effect of Z160”.
For C[C@H](Cc1ccc2c(c1)OC(C(=O)[O-])(C(=O)[O-])O2)NC[C@H](O)c1cccc(Cl)c1.[Na+].[Na+] [CL316,243, reference compound], the “effect on AKAP1 (pronase susceptibility)” value [5] was “not observed”.
